Data from PMC11035414, “A comparison study of dynamic [^18F]Alfatide II imaging and [^11C]MET in orthotopic rat models of glioblastoma” (Journal of Cancer Research and Clinical Oncology, 2024).

How the values were obtained:
[1] = system: orthotopic GBM rat models (C6 glioma cells); test: Dynamic PET/MR imaging, semi-quantitative analysis (SUVmean, TNR, time-activity curves); settings: in vivo
Protocol: C6 glioma cells from GuYan Biotech Co., Ltd. (Shanghai, China) were cultured in DMEM at 37 °C and 5% CO2. After two generations of cell culture, C6 cells were trypsinized and resuspended at the concentration of 1 × 10^7 cells/mL to prepare GBM model. […] After the hair on the top of the head was cut off, a small hole with a diameter of about 2 mm was drilled at the intersection of the left side of sagittal suture 3 mm and the front side of coronal suture 1 mm. […] After administering the injection, the syringe was carefully withdrawn. The burr hole was then sealed with bone wax, followed by suturing the skin closed. […] Simultaneous dynamic PET and MRI was performed with 150 mm field of view for whole-body mouse imaging. For [^18[…] imaging, the rat models received the intravenous bolus injection of 13.0 ± 2.1 MBq of the radiotracer. […] We conducted [^11C]MET and [^18[…] scans on 20 rats, with a time interval of no more than 48 h between the scans using the two tracers. […] On the PET image with both radiotracers, the MRI-based volume-of-interest (VOI) was manually delineated encompassing glioblastoma. […] The following parameters were extracted from TACs: time to peak (TTP) and slope of curve.

[2] = system: C6 glioblastoma-bearing rats; test: Ex vivo biodistribution study (γ counter); settings: rat, in vivo
Protocol: Biodistribution study: […] The tumors and major tissue organs (blood, brain, heart, lungs, liver, spleen, blander, kidneys, bowel, muscle, femur and tumor) were collected. Tissues and organs were washed with normal saline and dried, and weighed using an electronic scale. The radioactivity counts of tissues and organs were measured with a γ counter, and the corresponding radioactivity value (%ID/g) was calculated after time attenuation correction.

With `[11CH3]SCC[C@H](N)C(=O)O` [[^11C]MET, [^11C]methionine] as the compound, how does the “SUVmean in contralateral normal brain tissue” value [1] read?
Its value is 0.39 ± 0.12.

What about the “tumor-to-normal brain ratio (TNR)” value [1] of the same compound?
Its value is 2.91 ± 0.81.

What about the “normal organ(s) with the highest uptake, ex vivo” value [2] of the same compound?
Its value is “liver”.
